The values below come from PMC11984905, “Chiral Switch of Gadopiclenol: New Standards in MRI Probes” (Advanced Science, 2025).

“And” between values parts separate entries of the source, which are not always exact repeats. Equal values may be shown once. Marks after values point to notes of the source that are not given here.

Series [1] in a line: Stability and protonation constants of Ca(II)-complexes (pH-potentiometry). It counts as physicochemical. The settings on record: 0.15 M NaCl, 25 °C. As to the method: The protonation constants of ligands, the stability and protonation constants of Ca(II)‐ and Zn(II)‐complexes formed with rac‐L1, ent‐L1, rac‐L2, and ent‐L2 ligands were determined by pH‐potentiometric titration. The metal‐to‐ligand concentration ratio was 1:1 (the concentration of the ligand was generally 0.002 M). The protonation constants of the Cu(II)‐ and Gd(III)‐complexes were determined using pH‐potentiometry by titrating the pre‐prepared complexes from pH 2.0 to 12.0 with 0.2 M NaOH. The stability constants of the Gd(III)‐complexes with rac‐L1 and ent‐L1 ligands were determined by the “out‐of‐cell” technique because of their slow formation reaction. The pH range of the complexation equilibria and the time needed to reach the equilibria were determined by relaxometry. Eight–eight Gd(III) – rac‐L1 and Gd(III) – ent‐L1 samples were prepared, with pH values in the range of 1.7–3.0 at equilibrium ([Gd^3+] = [L] = 0.002 M). The samples were kept at 25 °C for 6 weeks to reach equilibrium. For the calculation of the stability constants of the [Gd(rac‐L1)]^3− and [Gd(ent‐L1)]^3− complexes, besides the protonation constants of ligands and the Gd(III) complexes, the stability constants of the di‐protonated [^*Gd(H2 rac‐L1)]^− and [^*Gd(H2 […])]^− out‐of‐cage complexes (considered as intermediates) was also used as fixed values, which were calculated from the pH‐potentiometric titration curve of the Gd(III) – rac‐L1 and Gd(III) – ent‐L1 system obtained in the pH range of 1.7–7.0.
For the pH measurements and titrations, the Metrohm 888 Titrando titration workstation Metrohm‐6.0234.110 combined electrode was used. Equilibrium measurements were carried out at a constant ionic strength (0.15 M NaCl) in 6 mL samples at 25 °C. The solutions were stirred, and N2 was bubbled through them. The titrations were made in the pH range 1.7–12.0. KH‐Phthalate (pH 4.005) and borax (pH 9.177) buffers were used to calibrate the pH meter. For the calculation of [H^+] from the measured pH values, the method proposed by Irving et al. was used as follows.^[ [46] ^] A 0.01M HCl solution was titrated with standardized NaOH solution at 0.15 M NaCl ionic strength. The differences (A) between the measured (pHread) and calculated pH (‐log[H^+]) values were used to obtain the equilibrium H^+ concentration from the pH values measured in the titration experiments (A = 0.02). For the equilibrium calculations, the stoichiometric water ionic product (pK w) was also needed in order to calculate [OH^−] values under basic conditions. The VNaOH – pHread data pairs of the HCl – NaOH titration obtained in the pH range 10.5–12.0 were used to calculate the pK w value (pK w = 13.83).
The stability and protonation constants of Ca(II)-, Zn(II)-, Cu(II)- and Gd(III)-complexes of rac-L1, ent-L1, rac-L2 and ent-L2, defined by Equations (S2) and (S3), were investigated by pH-potentiometry, spectrophotometry and ^1H NMR relaxometry at 25 °C in 0.15 M NaCl solution.
where i=0, 1, 2,…5. The KML and KMHiL values characterizing the formation of Ca(II)-, Zn(II)-, Cu(II)- and Gd(III)-complexes with rac-L1, ent-L1, rac-L2 and ent-L2 ligands have been calculated from the pH-potentiometric titration data obtained at 1:1 metal to ligand concentration ratios. In calculating the equilibrium constants, the best fitting of the mL NaOH – pH data has been obtained by assuming the formation of ML, MHL, MH2L, MH3L, MH4L, MH5L and MLH-1 species. The formation of the deprotonated [GdLH-1]^- complexes with rac-L2 and ent-L2 ligands takes place at pH>9.0, as indicated by the base consumption in the titration curves. This deprotonation of the Gd(III)-complexes occurs on the inner-sphere water molecule.

Series [2] can be described thus: 1H NMRD profiles and 17O NMR relaxometry in water. The series is classed as physicochemical. The settings on record: for ^298K r 1 [1.5 T] / r 1 ^310K [1.5 T]: water; for ER / q: fixed in the fitting procedure; for q: number of coordinated water molecules; for τ M1: residence time of coordinated water 1, 298 K; for τ M2: residence time of coordinated water 2, 298 K; for ^SS q: second-sphere water molecules at 3.6 Å; for ^298K r 1 [1.5 T] / ^SS q: 298 K. As to the method:
(§1) The magnetic‐field dependence of the longitudinal relaxation rate of water protons (^1H NMRD) were measured in aqueous solution by using a variable field relaxometer equipped with an HTS‐110 3T Metrology Cryogen‐free Superconducting Magnet (Mede, Italy), operating in the overall range of proton Larmor frequencies of 20–120 MHz (0.47–3.00 T). The measurements were performed using the standard inversion recovery sequence (20 experiments, 3 scans) with a 90° pulse width of 3.5 µs. The temperature was controlled with a Stelar VTC‐91 heater airflow. Additional points in the 0.01–10 MHz frequency range were collected on a Fast‐Field Cycling (FFC) Stelar SmarTracer Relaxometer. T 1 values at 500 MHz were collected on a Bruker Avance III NMR spectrometer operating at 11.7 T. The concentration of Gd^3+ in the solutions was determined by using bulk magnetic susceptibility (BMS) shift measurements performed at 11.7 T. For the measurements in the biological fluid, lyophilized plasma matrix (Siemens Healthcare) was added to 1 mL of [Gd(ent‐L2)] (1.0 mM) or Seronorm (Sero) was solubilized in 5 mL [Gd(ent‐L2)] (1.0 mM) solution. ^1H NMRD of the final solution was measured at 310 K.
The spectra were acquired on a Bruker Avance III spectrometer (11.7 T) using a 5 mm probe under temperature control. An aqueous solution of the complexes ([GdL] = 10–15 mM) was enriched to ca. 2.0% of the ^17O isotope (Cambridge Isotope). The transverse relaxation rates (R 2) were measured as a function of temperature in the 278−350 K range. The simultaneous fit of ^1H NMRD and ^17O NMR profiles data was performed using the Micromath Scientist software (version 2.0, Salt Lake City, UT, USA).

Series [3] in a line: Relaxivity (NMRD) in saline solution, human plasma and Seronorm at 310 K. It counts as physicochemical. As to the method: as §1
For series [4] the following is noted: 0.1 M Me4NCl, 25 °C; cited from earlier work.

Take `O=C(CCC(C(=O)O)N1CCN(C(CCC(=O)NCC(O)CO)C(=O)O)Cc2cccc(n2)CN(C(CCC(=O)NCC(O)CO)C(=O)O)CC1)NCC(O)CO` (racemic) [rac‐L2]: in series [1], the “logK CaL” value is reported as 7.84 (2) and the logKCaHL was 4.86 (9).
`O=C([O-])CCC(C(=O)[O-])N1CCN(C(CCC(=O)[O-])C(=O)[O-])Cc2cccc(n2)CN(C(CCC(=O)[O-])C(=O)[O-])CC1.[Gd+3]` (racemic) [[Gd(ent‐L1)]^3−]: in series [2], the “r 1 difference between [Gd(rac-L1)]3− and [Gd(ent-L1)]3−” value was determined as 18%; the “^298K r 1 [1.5 T]” value was determined as 10.9 mM⁻¹ s⁻¹; the “r 1 ^310K [1.5 T]” value came to 8.6 mM⁻¹ s⁻¹; the ER is on record as 22^b) kJ mol^-1. Moreover, in series [2], the q amounted to 2, the “τ M1” value came to 144 ± 4 ns, the “τ M2” value came to 58 ± 5 ns and the “^SS q” value is on record as 2.5 ± 0.1. Also, in series [2] (Table 2), the τ R stood at 96 ± 3 ps. In series [2] (Table S20, 298 K), this compound registered a τ R of 96±3 ps. Moreover, in series [2] (listed as [Gd(ent-L1)]^3-), the q was 2^b). In series [2] (listed as [Gd(ent‐L1)]^3⁻), the “^SS q” value was found to be 2.5.
On to `O=C(CCC(C(=O)[O-])N1CCN(C(CCC(=O)NCC(O)CO)C(=O)[O-])Cc2cccc(n2)CN(C(CCC(=O)NCC(O)CO)C(=O)[O-])CC1)NCC(O)CO.[Gd+3]` (stereo not drawn) [[Gd(ent‐L2)]], for which the plasma protein binding entry in series [3] is “lack of plasma protein binding”. In series [3] (0.47 T, human plasma, 310 K), this compound returned a r1 of 13.6 ± 0.1 mM⁻¹ s⁻¹. Further, in series [3] (0.47 T, saline solution, 310 K), the r1 was determined as 12.6 ± 0.1 mM⁻¹ s⁻¹. The same compound returned a r1 in series [3] (1.41 T, human plasma, 310 K) of 13.4 ± 0.2 mM⁻¹ s⁻¹. The r1 in series [3] (1.41 T, saline solution, 310 K) stood at 12.6 ± 0.1 mM⁻¹ s⁻¹. The same compound returned a r1 in series [3] (3 T, human plasma, 310 K) of 13.1 ± 0.2 mM⁻¹ s⁻¹. Moreover, the r1 in series [3] (3 T, saline solution, 310 K) stood at 12.4 ± 0.1 mM⁻¹ s⁻¹. In series [3] (37 °C and 3 T), the “r 1 relative to that of [Gd(BT-DO3A)] (Gadovist)” value is on record as “more than two times higher”. Moreover, in series [3] (310 K, vs water), the “change in relaxivity (NMRD profile) in human plasma and in Seronorm” value is recorded as “negligible changes in relaxivity”. In addition, in series [2], the “r 1 higher than [Gd(PCTA)]” value is listed as 175%; the “r 1 increase compared to [Gd(DOTA)]−” value came to 309%; the “relaxivity, times higher than that of currently used GBCAs” value is 2 to 3 times; the “^298K r 1 [1.5 T]” value stood at 16.5 mM⁻¹ s⁻¹. In series [2], the “r 1 ^310K [1.5 T]” value was found to be 12.6 mM⁻¹ s⁻¹, the ER is 22^b) kJ mol^-1, the q worked out at 2 and the “τ M1” value worked out at 155 ± 3 ns. Besides, in series [2], the “τ M2” value is listed as 77 ± 5 ns; the “^SS q” value is 4.5 and 4.5 ± 0.2. For the same compound, the τ R in series [2] (Table 2) came out at 127 ± 4 ps. Further, the τ R in series [2] (Table S20, 298 K) worked out at 127±4 ps. In addition, in series [2] (listed as [Gd(ent-L2)]), the q is recorded as 2^b.
As for `O=C(CCC(C(=O)O)N1CCN(C(CCC(=O)NCC(O)CO)C(=O)O)Cc2cccc(n2)CN(C(CCC(=O)NCC(O)CO)C(=O)O)CC1)NCC(O)CO` (stereo not drawn) [ent‐L2], in series [1], the “logK CaL” value is reported as 10.26 (1) and the logKCaHL is recorded as 4.16 (2).
As for `O=C(O)CCC(C(=O)O)N1CCN(C(CCC(=O)O)C(=O)O)Cc2cccc(n2)CN(C(CCC(=O)O)C(=O)O)CC1` (racemic) [rac‐L1, 2,2’,2’’-[3,6,9,15-tetraazabicyclo[9.3.1]pentadeca-1(15),11,13-triene-3,6,9-triyl]tripentanedioic acid], in series [1], the “logK CaL” value was 10.10 (1), the logKCaH2L is on record as 5.34 (2), the logKCaH3L is given as 4.83 (4) and the logKCaH4L is given as 4.45 (2). The logKCaHL in series [1] is given as 5.72 (1). Further, in series [4], the “logK1^H” value was 10.85, the “logK2^H” value is recorded as 6.86, the “logK3^H” value is listed as 5.37 and the “logK4^H” value was 4.77. In series [4], the “logK5^H” value was 4.24, the “logK6^H” value is 3.4, the “logK7^H” value is given as 1.92 and the “ΣlogKi^H” value was 37.50.
Take `O=C(O)CCC(C(=O)O)N1CCN(C(CCC(=O)O)C(=O)O)Cc2cccc(n2)CN(C(CCC(=O)O)C(=O)O)CC1` (stereo not drawn) [ent‐L1]: in series [1], the “logK CaL” value is listed as 11.03 (1), the logKCaH2L is recorded as 5.01 (2), the logKCaH3L is 4.74 (2) and the logKCaH4L is listed as 4.24 (3). Besides, in series [1], the logKCaHL is reported as 5.59 (2).
